Experimental data reported in patent US9265756B2, “Crystalline forms of grapiprant” (Aratana Therapeutics Inc., priority 2014, dated 2016).
“Also recorded” adds a separate entry of the source.

Legend:
[1] = water activity relating Forms A and D; assay type: physicochemical; settings: room temperature
Description: Overall, FIG. 1 summarizes the relationship of each polymorphic form with relationship to each other. Form J may be converted to Form D by drying in air (1). Form J may be converted to Form A by slurry in DCM/acetone (<1:2 v/v) at 25° C. (2). Form A may be converted to Form J by precipitation from DCM/n-heptane (2:1 v/v) (3). Forms A and D have an aw value of about 0.6 at room temperature (4). Form X may be converted from a slurry mixture of Form D and Form J in DCM/acetone or DCM/n-heptane (2:1 v/v) at room temperature (5). Form X may be converted to Form A by slurry in DCM/acetone (1:1 v/v) (6). Form A may be converted to Form X by slurry in DCM/acetone (≦1:3 v/v (7) or 1:2 v/v with 0.3 wt. % water (8)). Form X2 may be converted to Form A by slurry in DCM/acetone (1:3 v/v) with 0.3 wt. % water (9). Form A may be converted to Form X2 by slurry in acetone with 0.3 wt. % water (10). Form X2 may be converted to Form X3 by drying (11). Form X2 may also be generated by slurry of Forms A and X3 in DCM/acetone (1:3 v/v) with 0.3 wt. % water (12).

[2] = stability of crystalline forms (slurry experiments); settings: in 1:1 DCM/acetone (v/v)
Description: The stability of the crystalline forms was analyzed using slurry experiments. A portion of the solvent of interest was saturated with grapiprant in a small vial. Additional grapiprant was then added to the vial, and the resulting slurry was stirred using a magnetic stir bar.

[3] = solid form change on heating (XRPD); assay type: physicochemical
Description: The X-ray powder diffraction (XRPD) pattern was determined using an X-ray diffractometer. The instrument was equipped with a long fine focus X-ray tube (with a copper Kα radiation source operated at 45 kV/40 mA), and a diffracted beam monochromator mounted in front of a scintillation detector. The instrument parameters included a scan range of 3.0 to 40.0 degrees 2-theta, a step size of 0.02 degrees 2-theta, and a scan time of 12.7 seconds per step. The instrument was interfaced with a computer for data acquisition and analysis. Each sample was uniformly crushed with a spatula edge and placed on a quartz, zero-background holder.

[4] = system: other human prostanoid receptor subtypes; settings: cited from earlier work
[5] = system: thermal hyperalgesia induced by intraplantar injection of PGE2; settings: oral administration; cited from earlier work
[6] = system: mechanical hyperalgesia induced by carrageenan model; settings: cited from earlier work
[7] = system: complete Freund's adjuvant-induced chronic inflammatory pain response; settings: cited from earlier work

Compound: CCc1nc2c(C)nc(C)cc2n1-c1ccc(CCNC(=O)NS(=O)(=O)c2ccc(C)cc2)cc1 [Form A]
- aw value [1]: about 0.6
- relative stability of crystalline forms [2]: more stable than Form J

Compound: CCc1nc2c(C)nc(C)cc2n1-c1ccc(CCNC(=O)NS(=O)(=O)c2ccc(C)cc2)cc1 [Form X]
- form after heating (XRPD) ([3]; heating to 110° C.): becomes amorphous; also recorded: converted into amorphous

Compound: CCc1nc2c(C)nc(C)cc2n1-c1ccc(CCNC(=O)NS(=O)(=O)c2ccc(C)cc2)cc1 [grapiprant, N-{2-[4-(2-ethyl-4,6-dimethyl-1H-imidazo[4,5-c]pyridin-1-yl)phenyl]ethyl}-N′-[(4-methylphenyl)sulfonyl]urea]
- selectivity for the EP4 receptor over other human prostanoid receptor subtypes [4]: highly selective
- ED50, reduction of thermal hyperalgesia [5]: 12.8 mg/kg
- effect on mechanical hyperalgesia [6]: significantly reduces
- effect on chronic inflammatory pain response [7]: reverses

Compound: CCc1nc2c(C)nc(C)cc2n1-c1ccc(CCNC(=O)NS(=O)(=O)c2ccc(C)cc2)cc1 [Form J]
- form after heating (XRPD) ([3]; heating to 120° C.): becomes Form A; also recorded: converted into Form A
